ChEMBL document CHEMBL1759893, “1,4-Diazepane compounds as potent and selective CB2 agonists: optimization of metabolic stability” (Bioorg Med Chem Lett, 2011)
In brackets after ≈: the same amount, converted by molar mass.

Tests used:
[1] = Aqueous solubility of the compound at pH 7.4; assay type: physicochemical; details: buffer
Rattus norvegicus = species: Rattus norvegicus; experiment: Hepatic blood flow in rat; assay type: ADME, organism-based, Liver
Homo sapiens = species: Homo sapiens; experiment: Hepatic blood flow in human; assay type: ADME, organism-based, Liver
[2] = Volume of distribution at steady state in Wistar rat at 1 umol/kg, iv; assay type: ADME, organism-based, Wister; details: in vivo, read-out: Vdss
[3] = Oral bioavailability in Wistar rat at 10 umol/kg; assay type: ADME, organism-based, Wister; details: in vivo
[4] = AUC (0 to infinity) in Wistar rat at 10 umol/kg, po; assay type: ADME, organism-based, Wister; set-up: dose 10 umol/kg, route oral, time infinity; details: plasma
[5] = Cmax in Wistar rat at 10 umol/kg, po; assay type: ADME, organism-based, Wister; set-up: dose 10 umol/kg, route oral; details: in vivo

Compound | solubility [1] [µg/mL] | QH (Rattus norvegicus) [%] | QH (Homo sapiens) [%] | Vd [2] [L/kg] | bioavailability [3] [%] | AUC(0-inf) [4] [µM·h] | Cmax [5] [ng/mL]
CCCCc1ccc(NC(=O)N2CCCN(C(=O)CCC3CCCC3)CC2)cc1 | 3 (≈ 7.51 µM) | – | – | – | – | – | –
CC(C)(C)c1cc(NC(=O)N2CCCN(C(=O)C3CCOCC3)CC2)no1 | > 37 | 35 | < 24 | 0.87 | 28 | 1.38 | 1760
CC(C)(C)c1cc(NC(=O)N2CCCN(C(=O)C3CCOCC3)CC2)on1 | > 37 | < 23 | < 24 | – | – | – | –
CC(C)(C)c1cc(NC(=O)N2CCCN(C(=O)CN3CCS(=O)(=O)CC3)CC2)no1 | > 96 | 27 | 50 | – | – | – | –
CC(C)(C)c1cc(NC(=O)N2CCCN(C(=O)N3CCS(=O)(=O)CC3)CC2)no1 | 18 (≈ 42.1 µM) | 42 | < 24 | – | – | – | –
